{"source": "patent US12680077B2", "about": "“Generating populations of human blood and blood vessel progenitors from pluripotent stem cells” (The Board of Trustees of the Leland Stanford Junior …, priority 2020, dated 2026)", "type_in_all_cases": "cell-based, human", "key": {"[1]": {"tested_on": "hPSC-derived day-3 trunk artery cells", "test": "Differentiation of hPSC-derived day-3 trunk artery cells into hemogenic endothelium / HSC-like cells (qPCR, flow cytometry)", "details": "24 hours, OSM and LIF withheld together", "protocol": "(§1) FIG. 4: Efficient generation of trunk artery and hemogenic endothelium from hPSCs within 3 and 6 days, respectively. A) Cartoon of the strategy to generate trunk artery, hemogenic endothelium and HSC-like cells. B) Retinoic acid (RA) signaling induces HOXA1-5 genes in hPSC-derived trunk artery cells; day 1 hPSC-derived primitive streak cells were differentiated into trunk artery cells over the course of 48 hours, in the presence or absence of an RA agonist (TTNPB). C) Flow cytometry (left) and qPCR (right) of hPSC-derived trunk artery cells; for the qPCR data, gene expression is normalized for each gene to undifferentiated hPSCs (gene expression levels in hPSCs=1.0); as a negative control, hPSC-derived artery cells (white bar, generated in the absence of RA agonist) is shown. D) hPSC-derived day-3 trunk artery cells were differentiated into hemogenic endothelium for 24 hours in the complete hemogenic endothelium medium (Forskolin, SB505124, OSM and LIF), or in media where either Forskolin was withheld; SB505124 was withheld; or both OSM and LIF were withheld.\nFIG. 12: Optimizing the generation of trunk artery, hemogenic endothelium and HSC-like cells from hPSCs. A) Retinoic acid (RA) signaling induces HOXA1-5 genes in hPSC-derived trunk artery cells; day 1 hPSC-derived primitive streak cells were differentiated into trunk artery cells over the course of 48 hours, in the presence or absence of RA agonists (ATRA, AM580 or TTNPB) on day 2 alone (for 24 hours), day 3 alone (for 24 hours) or day 2-3 interval (for 48 hours) B) hPSC-derived trunk artery cells can be generated in defined conditions on a defined extracellular matrix (ECM); hPSCs were plated on Geltrex (an undefined ECM matrix); bulk laminin; or recombinant vitronectin or laminin-511. C) hPSCs were differentiated into day-3 artery cells (without RA agonist) or day-3 trunk artery cells (with RA agonist); and then were further differentiated over the course of 6 further days into day-9 HSC-like cells. […]\n(§2) Quantitative PCR. […]"}, "[2]": {"tested_on": "day 1 hPSC-derived primitive streak cells", "test": "Differentiation of day 1 primitive streak into trunk artery cells with RA agonists (qPCR, flow cytometry)", "details": "for HOXA1-HOXA5 expression by day 3: RA agonist for 48 hours (days 2-3), qPCR; for formation of CD144+ CD43+ blood progenitors by day 9: RA agonist on days 2-3, then 6 further days of differentiation", "protocol": "as §1\nFIG. 12: Optimizing the generation of trunk artery, hemogenic endothelium and HSC-like cells from hPSCs. A) Retinoic acid (RA) signaling induces HOXA1-5 genes in hPSC-derived trunk artery cells; day 1 hPSC-derived primitive streak cells were differentiated into trunk artery cells over the course of 48 hours, in the presence or absence of RA agonists (ATRA, AM580 or TTNPB) on day 2 alone (for 24 hours), day 3 alone (for 24 hours) or day 2-3 interval (for 48 hours) B) hPSC-derived trunk artery cells can be generated in defined conditions on a defined extracellular matrix (ECM); hPSCs were plated on Geltrex (an undefined ECM matrix); bulk laminin; or recombinant vitronectin or laminin-511. C) hPSCs were differentiated into day-3 artery cells (without RA agonist) or day-3 trunk artery cells (with RA agonist); and then were further differentiated over the course of 6 further days into day-9 HSC-like cells. […] G) qPCR of hPSC differentiation into trunk arteries (day 3) and their conversion into hemogenic endothelium (day 6); qPCR data are normalized such that for each gene, expression levels in undifferentiated hPSCs=1.0.\nDay 2 (trunk dorsal lateral mesoderm induction, 24 hours [Step 2b]). Day 1 mid primitive streak cells were briefly washed (DMEM/F12, Thermo Fisher) and then differentiated towards dorsal lateral mesoderm in CDM2 media supplemented with BMP4 (40 ng/mL), GDC-0941 (2.5 μM, Cellagen Technology), Forskolin (10 μM, Tocris), SB-505124 (2 μM, Tocris), VEGF (100 ng/mL, R&D Systems), XAV939 (1 μM, Tocris), AA2P (200 μg/mL) and TTNPB (0.5 nM) for 24 hours (i.e., the same media as dorsal lateral mesoderm induction, with the addition of TTNPB). […]\nas §2"}, "[3]": {"tested_on": "day 6 hPSC-derived hemogenic endothelium", "test": "Differentiation of day 6 hemogenic endothelium into day 9 HSC-like cells (qPCR, flow cytometry)", "details": "for expression of GATA1 and CD45RA: SR1 and UM171 applied together, days 6-9; for formation of hPSC-derived HSC-like cells: presence vs absence of both UM171 and SR1, 3 days, flow cytometry for CD45+ CD45RA- on day 9", "protocol": "FIG. 13: Optimizing the generation of, and characterizing, hPSC-derived HSC-like cells. […] B) qPCR was performed during hPSC differentiation into HSC-like cells every 24 hours; gene expression was normalized such that undifferentiated hPSCs=1.0. […] D) Flow cytometry strategy to purify i) CD144^+ CD45^+ CD45RA^− hPSC-derived day-9 HSC-like cells and ii) CD34^+ CD90^+ cord blood HSPCs vs. CD34^+ CD90^− cord blood non-HSCs (expanded for 3 days ex vivo prior to FACS sorting) for transcriptional analysis.\nDay 6-9 (HSC-like cell induction, 72 hours [Step 5b]). Day 6 hemogenic endothelium cells were briefly washed (DMEM/F12, Thermo Fisher) and then differentiated towards HSC-like cells in CDM3 media supplemented with Forskolin (10 μM), IL1β (5 ng/mL, R&D Systems), LIF (20 ng/mL), OSM (10 ng/mL), SB505124 (2 μM), SR1 (750 nM, Cellagen Technology) and UM171 (75 nM, ApexBio) for 72 hours. HSC-like cell induction media was refreshed every 24 hours.\nFlow cytometry. Undifferentiated and differentiated hPSCs were dissociated by incubation in TrypLE Express (Gibco) for 5 minutes at 37° C. Subsequently, dissociated cells in TrypLE Express were diluted 1:10 in DMEM/F12 and centrifuged (pelleted) at 500 g for 5 minutes. Each cell pellet was resuspended in FACS buffer (PBS+1 mM EDTA [Invitrogen]+2% v/v FBS [Atlanta Bio]+1% Penicillin/Streptomycin [Gibco]) supplemented with fluorescently-conjugated primary antibodies, and antibody staining occurred for 30 minutes on ice protected from light. After staining, cells were washed twice with FACS buffer and resuspended in 200 μL FACS buffer with DAPI (1:10,000, Biolegend) for live/dead discrimination. Samples were run on a Beckman Coulter CytoFlex analyzer (Stanford Stem Cell Institute FACS Core). For data analysis, cells were gated based on forward and side scatter with height and width used for doublet discrimination. Subsequently, live cells that were negative for DAPI were gated for all marker analyses and calculations of population frequency.\nQuantitative PCR. Undifferentiated or differentiated hPSCs were lysed in 350 μL of RLT Plus Buffer and RNA was extracted using the RNeasy Plus Mini Kit (Qiagen) according to the manufacturer's protocol. 300 ng of total RNA was reverse transcribed into cDNA for qPCR using the High-Capacity cDNA Reverse Transcription Kit (Applied Biosystems) according to the manufacturer's protocol. qPCR was performed in 384-well format as previously described (Loh et al., 2016), using gene-specific forward and reverse primers on a QuantStudio 5 qPCR machine (Thermo Fisher). Expression of all genes was normalized to the levels of the reference gene YWHAZ."}, "[4]": {"tested_on": "day 1 hPSC-derived primitive streak", "test": "Dorsal lateral mesoderm induction from day 1 primitive streak (qPCR on day 2)", "details": "day 2 of differentiation, 24 hours", "protocol": "FIG. 1: Efficient generation of human primitive streak and dorsal lateral mesoderm from hPSCs. A) Chronology of artery and vein development in vivo within mouse embryos (top) and in vitro from human pluripotent stem cells (hPSCs; bottom). B) Efficient generation of MIXL1^+ mid primitive streak within 24 hours of hPSC differentiation, as assayed by flow cytometry of a MIXL1-GFP reporter hESC line C) In vivo identification of candidate dorsal lateral mesoderm: from a scRNAseq profile of the E7.0 mouse embryo, Hand1^+ Elf5^− lateral mesoderm was computationally identified and then sub-clustered; marker genes shown superimposed on t-SNE (top) and in violin plots (below [CPM: counts per million]). […]\nas §2"}}}
{"molecule": "LIF: GP130 agonist", "values": [{"measurement": "RUNX1 expression by day 4 upon individual withdrawal of the agent from hemogenic endothelium medium", "setting": "[1]", "result": "reduced"}]}
{"molecule": "AM580", "values": [{"measurement": "HOXA1-HOXA5 expression by day 3", "setting": "[2]", "result": "enhanced"}, {"measurement": "formation of CD144+ CD43+ blood progenitors by day 9", "setting": "[2]", "result": "promote"}]}
{"molecule": "Cn1nnc(-c2ccc3c(c2)[nH]c2nc(Cc4ccccc4)nc(NC4CCC(N)CC4)c23)n1", "note": "(centres unmarked) [UM171]", "values": [{"measurement": "expression of GATA1 and CD45RA", "setting": "[3]", "result": "decreased"}, {"measurement": "formation of hPSC-derived HSC-like cells", "setting": "[3]", "result": "enhanced"}]}
{"molecule": "Cc1cccc(-c2[nH]c(C(C)(C)C)nc2-c2ccc3c(c2)OCO3)n1", "note": "[SB505124, 2-[4-(1,3-Benzodioxol-5-yl)-2-(1,1-dimethylethyl)-1H-imidazol-5-yl]-6-methyl-pyridine]", "values": [{"measurement": "RUNX1 expression by day 4 upon individual withdrawal of the agent from hemogenic endothelium medium", "setting": "[1]", "result": "reduced"}]}
{"molecule": "IL1: inflammatory signal IL1β", "values": [{"measurement": "blood formation in vitro", "setting": "[3]; inflammatory signal added days 6-9", "result": "modestly promoted"}]}
{"molecule": "CC(C)n1cnc2c(NCCc3ccc(O)cc3)nc(-c3csc4ccccc34)nc21", "note": "[SR1]", "values": [{"measurement": "expression of GATA1 and CD45RA", "setting": "[3]", "result": "decreased"}, {"measurement": "formation of hPSC-derived HSC-like cells", "setting": "[3]", "result": "enhanced"}]}
{"molecule": "VEGF", "values": [{"measurement": "expression of SCL, LMO2 and FLI1 (dorsal lateral mesoderm specification)", "setting": "[4]", "result": "upregulated"}]}
{"molecule": "C/C(=C\\c1ccc(C(=O)O)cc1)c1ccc2c(c1)C(C)(C)CCC2(C)C", "note": "[TTNPB]", "values": [{"measurement": "HOXA1-HOXA5 expression by day 3", "setting": "[2]", "result": "enhanced"}, {"measurement": "formation of CD144+ CD43+ blood progenitors by day 9", "setting": "[2]", "result": "promote"}]}
{"molecule": "OSM: GP130 agonist (protein, UniProt P13725 26-221, looked up) Oncostatin-M: AAIGSCSKEYRVLLGQLQKQTDLMQDTSRLLDPYIRIQGLDVPKLREHCRERPGAFPSEETLRGLGRRGFLQTLNATLGCVLHRLADLEQRLPKAQDLERSGLNIEDLEKLQMARPNILGLRNNIYCMAQLLDNSDTAEPTKAGRGASQPPTPTPASDAFQRKLEGCRFLHGYHRFMHSVGRVFSKWGESPNRSRR", "values": [{"measurement": "RUNX1 expression by day 4 upon individual withdrawal of the agent from hemogenic endothelium medium", "setting": "[1]", "result": "reduced"}]}
{"molecule": "BMP: BMP agonist; BMP4 used in the experiments (protein, UniProt P12644 293-408, looked up) Bone morphogenetic protein 4: SPKHHSQRARKKNKNCRRHSLYVDFSDVGWNDWIVAPPGYQAFYCHGDCPFPLADHLNSTNHAIVQTLVNSVNSSIPKACCVPTELSAISMLYLDEYDKVVLKNYQEMVVEGCGCR", "values": [{"measurement": "expression of SCL, LMO2 and FLI1 (dorsal lateral mesoderm specification)", "setting": "[4]", "result": "upregulated"}]}
